Series [1] in a line: Cytotoxicity against in human MT4 cells after 5 days by XTT assay. The series is classed as cell-based. Conditions: time 5 day. For orientation: Tetrazolium dyes change colour on reduction, which living cells bring about.
For series [2], the system named is Human immunodeficiency virus 1. Description: Antiviral activity against HIV-1 infected in MT4 cells assessed as reduction in virus-induced cytopathic effect preincubated for 1 hr followed by viral infection and measured after 5 days by XTT assay. The series is classed as functional, organism-based. The settings on record: Human immunodeficiency virus 1, MT4. (In general: Protection from cytopathic effect is a common read-out in antiviral testing.)

Series [3] can be described thus: Cytotoxicity against human HepG2-hNTCP cells incubated for 3 days by XTT assay. The class given is cell-based. The settings on record: time 3 day.
In a further series the test system is Hepatitis B virus. The experiment in a line: Antiviral activity against HBV infected in human HepG2-hNTCP cells assessed as reduction in HBV DNA incubated for day 1 followed by compound washout and fresh compound addition on following day and day 3, 6 and 10 measured on day 14 post infection by qPCR analysis. The class given is functional, organism-based.

By CC50 is commonly meant the concentration that lowers cell viability or growth by half. Read a low CC50 as greater toxicity to the cells. As a reminder, the EC50 is the concentration that produces a half-maximal response.

`CC(C)CCOC(=O)[C@H](Cc1ccc(O[P@](=O)(CO[C@H](C)Cn2cnc3c(N)ncnc32)N[C@@H](C)C(=O)OC(C)C)cc1)NC(=O)OCc1ccccc1` gave a CC50 at 120 h in series [1] of 24000 nM. Moreover, the EC50 in series [2] was 11 nM.
In series [3], `COC(=O)[C@H](Cc1ccc(O[P@](=O)(CO[C@H](C)Cn2cnc3c(N)ncnc32)N[C@@H](C)C(=O)OC(C)C)cc1)NC(=O)C(F)(F)F` gave a CC50 at 72 h greater than 50000 nM. Besides, the EC50 in the series on Hepatitis B virus was 1.6 nM; in series [2] it was 540 nM. This compound also came in with a CC50 at 120 h in series [1] greater than 50000 nM.
`CCOC(=O)[C@H](Cc1ccc(O[P@](=O)(CO[C@H](C)Cn2cnc3c(N)ncnc32)N[C@@H](C)C(=O)OC(C)C)cc1)NC(=O)OCc1ccccc1` registered a CC50 at 120 h in series [1] of 13000 nM. Besides, in series [2], the EC50 came to 20 nM.
In turn, `CCOC(=O)[C@H](Cc1ccc(OP(=O)(CO[C@H](C)Cn2cnc3c(N)ncnc32)N[C@@H](C)C(=O)OC(C)C)cc1)NC(=O)OCc1ccccc1` (stereo partly specified) showed a CC50 at 72 h in series [3] greater than 50000 nM. The EC50 in the series on Hepatitis B virus was 3.6 nM; in series [2] it was 17 nM. Besides, in series [1], the CC50 at 120 h was found to be 11000 nM.
In series [1], `COC(=O)[C@H](Cc1ccc(O[P@](=O)(CO[C@H](C)Cn2cnc3c(N)ncnc32)N[C@@H](C)C(=O)OC(C)C)cc1)N1CCCC1` displayed a CC50 at 120 h of 24000 nM. Moreover, the EC50 in series [2] is 11 nM.
In the same order, the values of `CCC(CC)COC(=O)[C@H](Cc1ccc(O[P@](=O)(CO[C@H](C)Cn2cnc3c(N)ncnc32)N[C@@H](C)C(=O)OC(C)C)cc1)NC(=O)OCc1ccccc1` are 38000 nM and 36 nM.
In the same order, the values of `COC(=O)[C@H](Cc1ccc(O[P@](=O)(CO[C@H](C)Cn2cnc3c(N)ncnc32)N[C@@H](C)C(=O)OC(C)C)cc1)NC(=O)OCc1ccccc1` are 8500 nM and 30 nM.
In the same order, the values of `CCCCCCOC(=O)[C@H](Cc1ccc(O[P@](=O)(CO[C@H](C)Cn2cnc3c(N)ncnc32)N[C@@H](C)C(=O)OC(C)C)cc1)NC(=O)OCc1ccccc1` are 17000 nM and 23 nM.
In the case of `CCOC(=O)[C@H](Cc1ccc(O[P@@](=O)(CO[C@H](C)Cn2cnc3c(N)ncnc32)N[C@@H](C)C(=O)OC(C)C)cc1)NC(=O)OCc1ccccc1`, in series [1], the CC50 at 120 h was found to be 11000 nM. The EC50 in series [2] was determined as 3.3 nM.
In the case of `CC(C)OC(=O)[C@H](C)N[P@@](=O)(CO[C@H](C)Cn1cnc2c(N)ncnc21)Oc1ccc(C[C@H](NCCCc2ccccc2)C(=O)OC2CCCC2)cc1`, the CC50 at 72 h in series [3] is greater than 50000 nM. In addition, the EC50 was 4 nM with Hepatitis B virus and 0.68 nM in series [2]. Also, the CC50 at 120 h in series [1] worked out at 7600 nM.
The compound `COC(=O)[C@H](Cc1ccc(O[P@@](=O)(CO[C@H](C)Cn2cnc3c(N)ncnc32)N[C@@H](C)C(=O)OC(C)C)cc1)N1CCCC1` displayed a CC50 at 120 h in series [1] of 27000 nM. Besides, in series [2], the EC50 is 16 nM.
In series [3], `COC(=O)[C@H](Cc1ccc(O[P@@](=O)(CO[C@H](C)Cn2cnc3c(N)ncnc32)N[C@@H](C)C(=O)OC(C)C)cc1)NC(C)=O` registered a CC50 at 72 h greater than 50000 nM. Further, the results for the EC50 (in the series with Hepatitis B virus; in series [2]) were 3.2 nM and 720 nM, respectively. Also, the CC50 at 120 h in series [1] was greater than 50000 nM.
Turning to `CC(C)OC(=O)[C@H](C)NP(=O)(CO[C@H](C)Cn1cnc2c(N)ncnc21)Oc1ccc(C[C@H](NC(=O)OCc2ccccc2)C(=O)OC(C)C)cc1` (stereo partly specified), the CC50 at 72 h in series [3] was greater than 50000 nM. The EC50 in the series with Hepatitis B virus was 4.2 nM; in series [2] it was 1.6 nM. This compound showed a CC50 at 120 h in series [1] of 9400 nM.
In series [3], `COC(=O)[C@H](Cc1ccc(OP(=O)(CO[C@H](C)Cn2cnc3c(N)ncnc32)N[C@@H](C)C(=O)OC(C)C)cc1)NC(=O)OCc1ccccc1` (stereo partly specified) gave a CC50 at 72 h of 15000 nM. Moreover, in the series with Hepatitis B virus, the EC50 worked out at 0.6 nM.
Compound `CC(C)OC(=O)[C@H](C)NP(=O)(CO[C@H](C)Cn1cnc2c(N)ncnc21)Oc1ccc(C[C@H](NC(=O)OCc2ccccc2)C(=O)OCc2cccs2)cc1` (stereo partly specified) returned a CC50 at 120 h in series [1] of 8200 nM. Also, the EC50 in series [2] is 3.4 nM.
With `COC(=O)[C@H](Cc1ccc(O[P@](=O)(CO[C@H](C)Cn2cnc3c(N)ncnc32)N[C@@H](C)C(=O)OC(C)C)cc1)NC(C)=O`, in series [3], the CC50 at 72 h was greater than 50000 nM. Further, the figures for the EC50 (with Hepatitis B virus; in series [2]) were 7.2 nM and 2200 nM, respectively. The compound further displayed a CC50 at 120 h in series [1] greater than 50000 nM.
For the compound `CC(C)OC(=O)[C@H](C)NP(=O)(CO[C@H](C)Cn1cnc2c(N)ncnc21)Oc1ccc(C[C@@H](C(=O)OC2CCCC2)N(CCCc2ccccc2)Cc2ccccc2)cc1` (stereo partly specified), the CC50 at 72 h in series [3] is greater than 50000 nM. In addition, in the series with Hepatitis B virus, the EC50 was 1.2 nM.
The compound `CC(C)OC(=O)[C@H](C)N[P@](=O)(CO[C@H](C)Cn1cnc2c(N)ncnc21)Oc1ccc(C[C@@H](NC(=O)OCc2ccccc2)C(=O)OC2CCCC2)cc1` returned a CC50 at 120 h in series [1] of 20000 nM. Further, the EC50 in series [2] is 0.67 nM.
In the same order, the values of `CC(C)OC(=O)[C@H](C)N[P@@](=O)(CO[C@H](C)Cn1cnc2c(N)ncnc21)Oc1ccc(C[C@H](NC(=O)OCc2ccccc2)C(=O)OC(C)C)cc1` are 13000 nM and 27 nM.
In the same order, the values of `CC(C)OC(=O)[C@H](C)N[P@@](=O)(CO[C@H](C)Cn1cnc2c(N)ncnc21)Oc1ccc(C[C@H](NC(=O)OCc2ccccc2)C(=O)OC2CCCCC2)cc1` are 14000 nM and 21 nM.
`CC(C)CCOC(=O)[C@H](Cc1ccc(OP(=O)(CO[C@H](C)Cn2cnc3c(N)ncnc32)N[C@@H](C)C(=O)OC(C)C)cc1)NC(=O)OCc1ccccc1` (stereo partly specified) yielded a CC50 at 72 h in series [3] greater than 50000 nM. Also, the EC50 turned out to be 0.2 nM in the series on Hepatitis B virus and 0.4 nM in series [2]. This compound registered a CC50 at 120 h in series [1] of 8400 nM.
With `COC(=O)[C@H](Cc1ccc(O[P@@](=O)(CO[C@H](C)Cn2cnc3c(N)ncnc32)N[C@@H](C)C(=O)OC(C)C)cc1)NC(=O)c1ccccc1`, the CC50 at 120 h in series [1] was greater than 50000 nM. The EC50 in series [2] was determined as 84 nM.
In series [3], `COC(=O)[C@H](Cc1ccc(O[P@@](=O)(CO[C@H](C)Cn2cnc3c(N)ncnc32)N[C@@H](C)C(=O)OC(C)C)cc1)NC(=O)C(F)(F)F` returned a CC50 at 72 h greater than 50000 nM. Besides, the EC50 with Hepatitis B virus is 0.27 nM; in series [2], 150 nM. In series [1], this compound registered a CC50 at 120 h greater than 50000 nM.
On to `COCCOCCOCCOC(=O)[C@H](Cc1ccc(OP(=O)(CO[C@H](C)Cn2cnc3c(N)ncnc32)N[C@@H](C)C(=O)OC(C)C)cc1)NC(=O)OCc1ccccc1` (stereo partly specified), for which the CC50 at 120 h in series [1] was greater than 50000 nM. Further, the EC50 in series [2] was found to be 470 nM.
In the same order, the values of `CC(C)OC(=O)[C@H](C)N[P@@](=O)(CO[C@H](C)Cn1cnc2c(N)ncnc21)Oc1ccc(C[C@H](NC(=O)OCc2ccccc2)C(=O)NC2CCCC2)cc1` are 17000 nM and 10 nM.
In the same order, the values of `COC(=O)[C@@H](N)Cc1ccc(O[P@@](=O)(CO[C@H](C)Cn2cnc3c(N)ncnc32)N[C@@H](C)C(=O)OC(C)C)cc1` are greater than 50000 nM and 350 nM.
In the case of `CCCCCCOC(=O)[C@H](Cc1ccc(OP(=O)(CO[C@H](C)Cn2cnc3c(N)ncnc32)N[C@@H](C)C(=O)OC(C)C)cc1)NC(=O)OCc1ccccc1` (stereo partly specified), in series [3], the CC50 at 72 h is greater than 50000 nM. Also, the values for the EC50 (in the series on Hepatitis B virus; in series [2]) were 1.4 nM and 1.8 nM, respectively. Further, the midpoint of cytotoxicity in series [1], the CC50 at 120 h, lay at 8400 nM.
Turning to `CCCCCCOC(=O)[C@H](Cc1ccc(O[P@@](=O)(CO[C@H](C)Cn2cnc3c(N)ncnc32)N[C@@H](C)C(=O)OC(C)C)cc1)NC(=O)OCc1ccccc1`, the midpoint of cytotoxicity in series [1], the CC50 at 120 h, lay at 13000 nM. Also, in series [2], the EC50 was 16 nM.
`CC(C)OC(=O)[C@H](C)NP(=O)(CO[C@H](C)Cn1cnc2c(N)ncnc21)Oc1ccc(C[C@@H](C(=O)CC2CCCC2)N(CCCc2ccccc2)Cc2ccccc2)cc1` (stereo partly specified) gave a CC50 at 72 h in series [3] of 46000 nM. In the series with Hepatitis B virus, the EC50 is 1.3 nM.
`CC(C)OC(=O)[C@H](C)N[P@](=O)(CO[C@H](C)Cn1cnc2c(N)ncnc21)Oc1ccc(C[C@H](NC(=O)OCc2ccccc2)C(=O)OC2CCCCC2)cc1` yielded a CC50 at 120 h in series [1] of 9100 nM. In addition, the EC50 in series [2] worked out at 8.4 nM.
For `COC(=O)[C@H](Cc1ccc(O[P@@](=O)(CO[C@H](C)Cn2cnc3c(N)ncnc32)N[C@@H](C)C(=O)OC(C)C)cc1)NC(=O)OCc1ccccc1` the same measures were 16000 nM and 16 nM.
In the same order, the values of `COC(=O)[C@H](Cc1ccc(O[P@](=O)(CO[C@H](C)Cn2cnc3c(N)ncnc32)N[C@@H](C)C(=O)OC(C)C)cc1)NC(=O)c1ccccc1` are greater than 50000 nM and 72 nM.
Turning to `CC(C)OC(=O)[C@H](C)NP(=O)(CO[C@H](C)Cn1cnc2c(N)ncnc21)Oc1ccc(C[C@H](NC(=O)OCc2ccccc2)C(=O)OCc2ccccc2)cc1` (stereo partly specified), the cytotoxic concentration (CC50) at 120 h in series [1] was 10000 nM. Also, the EC50 in series [2] came out at 9 nM.
For `CC(C)OC(=O)[C@H](C)NP(=O)(CO[C@H](C)Cn1cnc2c(N)ncnc21)Oc1ccc(C[C@H](NC(=O)OCc2ccccc2)C(=O)OC(C)(C)C)cc1` (stereo partly specified) the same measures were 6600 nM and 13 nM.
For `COC(=O)[C@@H](N)Cc1ccc(O[P@](=O)(CO[C@H](C)Cn2cnc3c(N)ncnc32)N[C@@H](C)C(=O)OC(C)C)cc1` the same measures were greater than 50000 nM and 650 nM.
In the same order, the values of `COC(=O)[C@H](Cc1ccc(O[P@@](=O)(CO[C@H](C)Cn2cnc3c(N)ncnc32)N[C@@H](C)C(=O)OC(C)C)cc1)N(C)C` are 38000 nM and 48 nM.
On to `CCCCCCCCOC(=O)[C@H](Cc1ccc(OP(=O)(CO[C@H](C)Cn2cnc3c(N)ncnc32)N[C@@H](C)C(=O)OC(C)C)cc1)NC(=O)OCc1ccccc1` (stereo partly specified), for which the CC50 at 120 h in series [1] was found to be 27000 nM. Further, the EC50 in series [2] worked out at 38 nM.
For `COC(=O)[C@H](Cc1ccc(O[P@](=O)(CO[C@H](C)Cn2cnc3c(N)ncnc32)N[C@@H](C)C(=O)OC(C)C)cc1)N(C)C` the same measures were greater than 50000 nM and 2500 nM.
In the same order, the values of `CCC(CC)COC(=O)[C@H](Cc1ccc(O[P@@](=O)(CO[C@H](C)Cn2cnc3c(N)ncnc32)N[C@@H](C)C(=O)OC(C)C)cc1)NC(=O)OCc1ccccc1` are 38000 nM and 50 nM.

Values taken from ChEMBL document CHEMBL4840358, “Discovery of Modified Amidate (ProTide) Prodrugs of Tenofovir with Enhanced Antiviral Properties” (J Med Chem, 2021).
